Reference: patent US9011880B2, “Compounds and methods for treating cancer” (IGF Oncology, LLC, priority 2003, dated 2015)
Like-named read-outs stand apart in the source and are kept apart here.

Tests used:
[1] = system: mouse fibrosarcoma cell line FSAII; assay: In vitro growth inhibition of FSAII cells (cell-counting kit-8); format: cell-based; details: minimal medium, 2 nM to 2 μM, 72 hours
Description: In vitro growth inhibition. […] The cells were grown in a 5% CO2 atmosphere at 37° C. in 100 cm^2 plastic tissue culture dishes (20 ml medium). Cells were passed every 4-6 days and seeded at 2×10^6 cells per plate. Cells were harvested by washing once in Hank's balanced salt solution, and then digesting with 3 ml of trypsin-EDTA for 3-10 minutes until cells had detached. Trypsinization was stopped by adding rich medium. The harvested cells were washed by centrifugation and resuspended in rich medium, and then plated in a 96-well plate at 12,000 cells per well in rich medium. Plates were incubated in the rich medium 16 hours and then transferred to minimal medium (100 μl/well), which lacked serum and thus lacked insulin and IGF and other growth factors. Minimal medium was RPMI supplemented with 10 μg/ml transferrin (iron-loaded) and 200 μg/ml bovine serum albumin. […] Each condition was tested in triplicate. After 72 hours incubation at 37° C., cell proliferation was assayed by the cell-counting kit-8, based on tetrazolium dye reduction, similar to the MTT assay (Dojindo Molecular Technologies, Gaithersburg, Md.).

FSAII tumors = assay: FSAII tumor growth in vivo in mice; parameters: species or system mouse; details: intraperitoneally, days 0, 2 and 5
Description: FSAII testing. Six-week old female mice were injected subcutaneously in the thigh with 200,000 FSAII cells each in serum-free medium. Tumors were allowed to grow until they reached an average volume of 100 mm^3 (calculated as length×breadth^2). At that time, treatment was initiated. […] A fifth group of mice was untreated controls. Each group contained five mice. Mice were treated on days 0, 2, and 5. Tumor growth was measured every second day.

LNCAP tumors = format: in vivo, mouse; details: days 0, 4, 8, 18, 22 and 26
Description: LNCAP testing. Eight-week old athymic male mice (nu/nu) were injected subcutaneously in the thigh with 1 million LNCAP cells in serum-free medium. Tumors were allowed to grow until they reached an average size of 100 mm^3. […] A fifth group of mice was untreated controls.

LNCAP cells [2] = assay: In vitro proliferation assay, LNCaP (Example 8); format: cell-based, human
Description: LNCaP, MCF7 and MCF7-L cell lines were plated, respectively, in a 96-well plate at 5,000 cells per well in RPMI+glutamine+10% FCS medium in 100 μl. After 24 hours, 100 μl fresh medium was added containing no drug (control), IGF-MTX or MTX at the indicated concentration.

MCF7 tumors = assay: MCF7 xenograft tumor growth in nu/nu mice; format: in vivo, mouse; details: 40 nmol/g intravenous, days 0, 4 and 8; 12 days of observation
Description: (§1) MCF7 cells (human breast adenocarcinoma cell line) were grown in Eagle's minimal essential medium supplemented with 0.1 mg/ml insulin and 10% FCS. The estrogen-dependent MCF7-L cell line was a gift from Deepali Sachdev of the University of Minnesota. MCF7-L cells were grown in modified IMEM medium (Invitrogen, Carlsbad, Calif., USA) supplemented with 0.1 mg/ml insulin. LNCaP cells (metastatic human prostatic adenocarcinoma) were grown in RPMI supplemented with glutamine and 10% FCS (Invitrogen, Carlsbad, Calif., USA). Cells were grown at 37° C. in a 5% CO2 humidified atmosphere. In each case, cells were grown to approximately two-thirds confluence, harvested by trypsinization, washed with rich medium and then washed twice with PBS and resuspended in phosphate buffered saline in BD matrigel matrix (Becton Dickinson, Franklin Lakes, N.J., USA). Cells were injected intradermally in mice on the back. An estrogen pellet (0.5 mg estradiol, 60-day release, Innovative Research of America, Sarasota, Fla., USA) was implanted subcutaneously between the shoulder blades two days before implanting MCF7 and MCF7-L cells. MCF7 and MCF7-L cells were implanted in 8-week-old female nu/nu mice. LNCaP cells were implanted in 8-week-old male nu/nu mice. […] MTX was dissolved in PBS. Untreated vehicle controls received 2 mM HCl, 1% glycerol. Drug was administered intravenously by tail-vein injection in a volume of 12.5 μl per gram mouse weight. All studies were approved by the University of Minnesota Animal Care and Use Committee and conformed to relevant ethical guidelines.
Three in vivo studies were performed to assess the targeting of MTX with long-R3-IGF-1. In the initial preliminary study, breast cancer MCF7 cells were implanted intradermally in the backs of nude mice.

MCF7-L tumors = assay: MCF7-L xenograft tumor growth in nu/nu mice; format: in vivo, mouse; details: day 22; IGF-MTX 10 nmol of MTX/g or free MTX 40 nmol/g, tail vein, days 0 and 5
Description: as §1, with “Drug was administered intravenously by tail-vein injection in a volume of 12.5 μl per gram mouse weight. All studies were approved by the University of Minnesota Animal Care and Use Committee and conformed to relevant ethical guidelines.” left out

[3] = IGF-MTX- and MTX-related toxicity in mice (ill effects, body weight); details: mice implanted with MCF7-L cells, n = 5/group
Description: as §1

breast cancer cells [4] = details: administered with insulin; cited from earlier work
breast cancer cells [5] = details: cells incubated with insulin; cited from earlier work
[6] = humans, cited from earlier work
LNCAP cells [7] = assay: LNCAP proliferation in vitro (Example 5, cell counting kit-8)
Description: LNCAP cells were plated in a 96-well plate at 3,000 cells per well in RPMI medium supplemented with 10% fetal bovine serum (FBS). After incubation overnight, the medium in the wells was replaced with 100 μl per well of RPMI supplemented with 0.1% FBS. […] After incubation for 4 days, cell proliferation was assayed with the cell counting kit-8 (Dojindo Molecular Technologies, Gaithersburg, Md.).

[8] = system: MDA-MB-231 breast cancer cells; details: cells incubated with insulin; cited from earlier work
[9] = low dose 15 μmoles/kg methotrexate

CN(Cc1cnc2nc(N)nc(N)c2n1)c1ccc(C(=O)N[C@@H](CCC(=O)O)C(=O)O)cc1 [methotrexate]
inhibition of FSAII proliferation [1]: inhibited FSAII proliferation | effect on FSAII tumor growth (FSAII tumors; high dose 60 μmoles/kg methotrexate): Neither the high or low dose of methotrexate had any apparent effect | effect on FSAII tumor growth (FSAII tumors; [9]): Neither the high or low dose of methotrexate had any apparent effect | effect on LNCAP tumor growth (LNCAP tumors; high dose 40 μmoles/kg methotrexate): appeared to have no effect | effect on LNCAP tumor growth (LNCAP tumors; [9]): appeared to have no effect | inhibition of proliferation at highest tested concentration (LNCAP cells [2]; 2000 nM): significantly greater inhibition than IGF-MTX | inhibition of proliferation compared to untreated control cells (LNCAP cells [2]; LNCaP): inhibited proliferation of LNCaP cells | IC50 (LNCAP cells [2]; free MTX, LNCaP, RPMI + 10% FCS, 48 hours with drug, IGF-MTX as concentration of MTX groups): ~0.4 µM | MCF7 tumor growth (MCF7 tumors): tumors continued to grow | MCF7-L tumor growth inhibition (MCF7-L tumors): inhibited about equally | Average weight of mice, Day 4 [3]: 19.5 g | Average weight of mice, Day 20 [3]: 20.8 g | Average weight of mice, Day 0 ([3]; measured immediately before treatment): 19.2 g | factor of lower methotrexate concentration for the same percent cell killing than methotrexate alone (breast cancer cells [4]): 10^4 | stimulation of uptake (breast cancer cells [5]): 50% | maximum safe dosage ([6]; cumulative per 3 weeks): about 500 micromoles per meter squared per 3 weeks | minimum effective dosage ([6]; lowest dosage usually used): about 130 micromoles per meter squared per 3 weeks | Cell number (relative units) (LNCAP cells [7]; Minimal med. (0.1% FBS), MTX conc. 2 nM): .653 ± .046 relative units | Cell number (relative units) (LNCAP cells [7]; Minimal med. (0.1% FBS), MTX conc. 8 nM): .737 ± .043 relative units | Cell number (relative units) (LNCAP cells [7]; Minimal med. (0.1% FBS), MTX conc. 32 nM): .994 ± .226 relative units | Cell number (relative units) (LNCAP cells [7]; Minimal med. (0.1% FBS), MTX conc. 125 nM): .835 ± .048 relative units | Cell number (relative units) (LNCAP cells [7]; Minimal med. (0.1% FBS), MTX conc. 500 nM): .706 ± .051 relative units | Cell number (relative units) (LNCAP cells [7]; Minimal med. (0.1% FBS), MTX conc. 2000 nM): 0.418 ± .026 relative units | Cell number (relative units) (LNCAP cells [7]; Rich medium (10% FBS), MTX conc. 2 nM): 0.724 ± .015 relative units | Cell number (relative units) (LNCAP cells [7]; Rich medium (10% FBS), MTX conc. 8 nM): 0.596 ± .071 relative units | Cell number (relative units) (LNCAP cells [7]; Rich medium (10% FBS), MTX conc. 32 nM): 1.017 ± .033 relative units | Cell number (relative units) (LNCAP cells [7]; Rich medium (10% FBS), MTX conc. 125 nM): 0.223 ± .012 relative units | Cell number (relative units) (LNCAP cells [7]; Rich medium (10% FBS), MTX conc. 500 nM): 0.163 ± .009 relative units | minimal inhibitory concentration (LNCAP cells [7]; minimal medium containing 0.1% serum): about 2000 nM | minimal inhibitory concentration (LNCAP cells [7]; rich medium containing 10% serum): about 125 nM

Cc1c2ccncc2c(C)c2c1[nH]c1ccccc12 [elipticine]
stimulation of uptake [8]: 2 fold
